Assay results as given in paper PMC7005675 (Molecular Cell, 2020).

Biological target: T1, RsiG (Streptomyces venezuelae, UniProt F2RFR7)
T1 sequence (F2RFR7 1-199): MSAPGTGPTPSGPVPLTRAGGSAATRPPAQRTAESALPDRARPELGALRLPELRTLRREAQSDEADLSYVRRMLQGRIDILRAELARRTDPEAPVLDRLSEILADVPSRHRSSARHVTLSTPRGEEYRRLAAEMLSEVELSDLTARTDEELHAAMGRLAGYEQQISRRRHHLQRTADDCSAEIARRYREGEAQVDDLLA
Experiment: fluorescence polarization
Type: binding
Settings: labelled compound; 150 mM NaCl, 25 mM Tris-HCl pH 7.5, 25°C; 1 nM probe

- Kd: 6.5 ± 1.5 µM
Substance: 2′-O-(6-[Fluoresceinyl]aminohexylcarbamoyl)-cyclic diguanosine monophosphate [2′-Fluo-AHC-c-di-GMP]
